Data published in patent US6358885B1, “Substituted phenylheterocyclic herbicides” (Mississippi State University, priority 1992, dated 2002).

What was measured:
cocklebur = assay: Test B preemergence/postemergence greenhouse plant response rating 0 to 10; format: in vivo, Xanthium pensylvanicum; settings: 0 to 10 scale
Method in brief: (§1)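 Test chemicals were sprayed onto freshly planted seed and, concurrently, onto young plants between the one and four leaf stage. After a twelve- to sixteen-day greenhouse period, each species was visually compared with untreated controls.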

rice [1] = assay: as above; format: in vivo, Oryza sativa; settings: 0 to 10 scale
Method in brief: as §1

soybean = assay: as above; format: in vivo, Glycine max; settings: 0 to 10 scale
Method in brief: as §1

wild buckwheat = assay: as above; format: in vivo, Polygonum convolvulus; settings: 0 to 10 scale
Method in brief: as §1

purple nutsedge = assay: as above; format: in vivo, Cyperus rotundus; settings: 0 to 10 scale
Method in brief: as §1

bedstraw = assay: Test C preemergence/postemergence greenhouse plant response rating 0 to 100; format: in vivo, Galium aparine; settings: POSTEMERGENCE
Method in brief: (§2)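 Compounds in non-phytotoxic solvent went onto sandy loam before emergence (seeded one day earlier) or onto plants at the one-to-four leaf stage. Duck salad was treated via flood water (~2.5 cm, maintained) over silt loam.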

blackgrass = assay: as above; format: in vivo, Alopecurus myosuroides; settings: POSTEMERGENCE
Method in brief: as §2

chickweed = assay: as above; format: in vivo, Stellaria media; settings: POSTEMERGENCE
Method in brief: as §2

corn = assay: as above; format: in vivo, Zea mays; settings: POSTEMERGENCE
Method in brief: as §2

cotton = assay: as above; format: in vivo, Gossypium hirsutum; settings: POSTEMERGENCE
Method in brief: as §2

giant foxtail = assay: as above; format: in vivo, Setaria faberii; settings: POSTEMERGENCE
Method in brief: as §2

pigweed = assay: as above; format: in vivo, Amaranthusretroflexus; settings: POSTEMERGENCE
Method in brief: as §2

sugar beet = assay: as above; format: in vivo, Beta vulgaris; settings: POSTEMERGENCE
Method in brief: as §2

velvetleaf = assay: as above; format: in vivo, Abutilon theophrasti; settings: POSTEMERGENCE
Method in brief: as §2

rice [2] = assay: Test C flood test plant response rating 0 to 100; format: in vivo, Oryza sativa
Method in brief: (§3)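 Compounds in non-phytotoxic solvent applied preemergence to sandy loam one day after planting, postemergence at the 1–4 leaf stage, or to ~2.5 cm floodwater over silt loam.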

umbrella sedge = assay: Test C flood test plant response rating 0 to 100; format: in vivo, Cyperus difformis
Method in brief: as §3

duck salad = assay: Test C flood test plant response rating 0 to 100; format: in vivo, Heteranthera limosa
Method in brief: as §2

[3] = POSTEMERGENCE section, flood test, Rate 1 g/ha
[4] = POSTEMERGENCE section, flood test, Rate 4 g/ha
[5] = Rate 16 g/ha, under POSTEMERGENCE head (flood test species)
[6] = flood test species listed under POSTEMERGENCE, 62 g/ha, 0 to 100 scale

SMILES: COCN1C(=O)COc2cc(F)c(-c3nn4c(c3Br)CCCC4)cc21 [Compound 67]
- Plant response rating, Cocklebur (cocklebur; POSTEMERGENCE, Rate 10 g/ha): 8
- Plant response rating, Cocklebur (cocklebur; POSTEMERGENCE, Rate 50 g/ha): 9
- Plant response rating, Cocklebur (cocklebur; PREEMERGENCE, Rate 10 g/ha): 0
- Plant response rating, Cocklebur (cocklebur; PREEMERGENCE, Rate 50 g/ha): 0
- Plant response rating, Rice (rice [1]; POSTEMERGENCE, Rate 10 g/ha): 6
- Plant response rating, Rice (rice [1]; POSTEMERGENCE, Rate 50 g/ha): 7
- Plant response rating, Rice (rice [1]; PREEMERGENCE, Rate 50 g/ha): 0
- Plant response rating, Soybean (soybean; POSTEMERGENCE, Rate 10 g/ha): 8
- Plant response rating, Soybean (soybean; POSTEMERGENCE, Rate 50 g/ha): 9
- Plant response rating, Soybean (soybean; PREEMERGENCE, Rate 50 g/ha): 0
- Plant response rating, Wild buckwheat (wild buckwheat; POSTEMERGENCE, Rate 10 g/ha): 10
- Plant response rating, Wild buckwheat (wild buckwheat; POSTEMERGENCE, Rate 50 g/ha): 10
- Plant response rating, Wild buckwheat (wild buckwheat; PREEMERGENCE, Rate 50 g/ha): 10
- Plant response rating, Nutsedge (purple nutsedge; POSTEMERGENCE, Rate 10 g/ha): 1
- Plant response rating, Nutsedge (purple nutsedge; POSTEMERGENCE, Rate 50 g/ha): 3
- Plant response rating, Nutsedge (purple nutsedge; PREEMERGENCE, Rate 50 g/ha): 0
- Plant response rating, Bedstraw (bedstraw; 62 g/ha, 0 to 100 scale): 80
- Plant response rating (0 to 100), Bedstraw (bedstraw; Rate 1 g/ha): 40
- Plant response rating (0 to 100), Bedstraw (bedstraw; Rate 4 g/ha): 70
- Plant response rating (0 to 100), Bedstraw (bedstraw; Rate 16 g/ha): 80
- Plant response rating, Blackgrass (blackgrass; 62 g/ha, 0 to 100 scale): 60
- Plant response rating (0 to 100), Blackgrass (blackgrass; Rate 1 g/ha): 30
- Plant response rating (0 to 100), Blackgrass (blackgrass; Rate 4 g/ha): 40
- Plant response rating (0 to 100), Blackgrass (blackgrass; Rate 16 g/ha): 50
- Plant response rating, Chickweed (chickweed; 62 g/ha, 0 to 100 scale): 100
- Plant response rating (0 to 100), Chickweed (chickweed; Rate 1 g/ha): 70
- Plant response rating (0 to 100), Chickweed (chickweed; Rate 4 g/ha): 70
- Plant response rating (0 to 100), Chickweed (chickweed; Rate 16 g/ha): 95
- Plant response rating, Corn (corn; 62 g/ha, 0 to 100 scale): 40
- Plant response rating (0 to 100), Corn (corn; Rate 1 g/ha): 10
- Plant response rating (0 to 100), Corn (corn; Rate 4 g/ha): 20
- Plant response rating (0 to 100), Corn (corn; Rate 16 g/ha): 30
- Plant response rating, Cotton (cotton; 62 g/ha, 0 to 100 scale): 100
- Plant response rating (0 to 100), Cotton (cotton; Rate 1 g/ha): 95
- Plant response rating (0 to 100), Cotton (cotton; Rate 4 g/ha): 100
- Plant response rating (0 to 100), Cotton (cotton; Rate 16 g/ha): 100
- Plant response rating, Giant foxtail (giant foxtail; 62 g/ha, 0 to 100 scale): 40
- Plant response rating (0 to 100), Giant foxtail (giant foxtail; Rate 1 g/ha): 10
- Plant response rating (0 to 100), Giant foxtail (giant foxtail; Rate 4 g/ha): 20
- Plant response rating (0 to 100), Giant foxtail (giant foxtail; Rate 16 g/ha): 30
- Plant response rating Pigweed (pigweed; 62 g/ha, 0 to 100 scale): 100
- Plant response rating (0 to 100), Pigweed (pigweed; Rate 4 g/ha): 70
- Plant response rating (0 to 100), Pigweed (pigweed; Rate 16 g/ha): 100
- Plant response rating, Sugar beet (sugar beet; 62 g/ha, 0 to 100 scale): 100
- Plant response rating (0 to 100), Sugar beet (sugar beet; Rate 1 g/ha): 100
- Plant response rating (0 to 100), Sugar beet (sugar beet; Rate 4 g/ha): 100
- Plant response rating (0 to 100), Sugar beet (sugar beet; Rate 16 g/ha): 100
- Plant response rating, Velvetleaf (velvetleaf; 62 g/ha, 0 to 100 scale): 100
- Plant response rating (0 to 100), Velvetleaf (velvetleaf; Rate 1 g/ha): 70
- Plant response rating (0 to 100), Velvetleaf (velvetleaf; Rate 4 g/ha): 85
- Plant response rating (0 to 100), Velvetleaf (velvetleaf; Rate 16 g/ha): 100
- Plant response rating (0 to 100), Rice Japonica (rice [2]; [3]): 0
- Plant response rating (0 to 100), Rice Japonica (rice [2]; [4]): 0
- Plant response rating (0 to 100), Rice Japonica (rice [2]; [5]): 50
- Plant response rating Rice Japonica (rice [2]; [6]): 90
- Plant response rating (0 to 100), Umbrella sedge (umbrella sedge; [3]): 0
- Plant response rating (0 to 100), Umbrella sedge (umbrella sedge; [4]): 0
- Plant response rating (0 to 100), Umbrella sedge (umbrella sedge; [5]): 30
- Plant response rating Umbrella sedge (umbrella sedge; [6]): 70
- Plant response rating (0 to 100), Duck salad (duck salad; [3]): 0
- Plant response rating (0 to 100), Duck salad (duck salad; [4]): 0
- Plant response rating (0 to 100), Duck salad (duck salad; [5]): 0
- Plant response rating Duck salad (duck salad; [6]): 10
